Test results taken from patent publication US20170190671A1, “BIS(ARYL)CATECHOL DERIVATIVES AS HERBICIDES” (E I DU PONT DE NEMOURS AND COMPANY, priority 2014, published 2017).

How the values were obtained:
Type in all cases: in vivo
[1] = tested on: lambsquarters (Chenopodium album); assay: Test C preemergence; details: scale 0 to 100; for pest or weed control at 31 g/ha / pest or weed control at 62 g/ha / pest or weed control at 125 g/ha: Chenopodium album, pre-emergence, 336 h, read-out: Plant response rating, Lambsquarters
Outline: (§1)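 0-100 visual injury score (100 = complete control), assessed at 13-15 d after treatment against controls; surfactant-containing solvent formulation applied preemergence to seeded loam-sand soil or sprayed onto 1- to 4-leaf greenhouse plants.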

[2] = tested on: barnyardgrass (Echinochloa crus-galli); assay: Test C preemergence; details: scale 0 to 100; for pest or weed control at 31 g/ha / pest or weed control at 62 g/ha / pest or weed control at 125 g/ha / pest or weed control at 250 g/ha: Echinochloa crus-galli, pre-emergence, read-out: Plant response rating, Barnyardgrass
Outline: as §1

[3] = tested on: pigweed (Amaranthus retroflexus); assay: Test A postemergence; details: 1000 g ai/ha, 0 to 100 scale; for pest or weed control at 1000 g/ha: Amaranthus retroflexus, post-emergence, 240 h, read-out: Plant response rating, Pigweed
Outline: (§2)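 Scoring: eye-based comparison with untreated controls, 0 for no effect through 100 for complete control, at about day 10. Treatments: directed soil spray preemergence; foliar spray postemergence on 2–10 cm plants at the one- to two-leaf stage. Medium: loam soil with sand.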

[4] = tested on: wheat (Triticum aestivum); assay: Test A postemergence; details: 1000 g ai/ha, 0 to 100 scale; for plant injury at 1000 g/ha: Triticum aestivum, post-emergence, 240 h, read-out: Plant response rating, Wheat
Outline: as §2

[5] = tested on: Italian ryegrass (Lolium multiflorum); assay: Test A postemergence; details: 1000 g ai/ha, 0 to 100 scale; for pest or weed control at 1000 g/ha: Lolium multiflorum, post-emergence, 240 h, read-out: Plant response rating, Ryegrass, Italian
Outline: as §2

[6] = tested on: kochia (Kochia scoparia); assay: Test A postemergence; details: 1000 g ai/ha, 0 to 100 scale; for pest or weed control at 1000 g/ha: Bassia scoparia, post-emergence, 240 h, read-out: Plant response rating, Kochia
Outline: as §2

[7] = tested on: corn (Zea mays); assay: Test A postemergence; details: 1000 g ai/ha, 0 to 100 scale; for Corn plant response rating (crop injury, 0 = no effect, 100 = complete kill) at 1000 g/ha: Zea mays, post-emergence, 240 h
Outline: as §2

[8] = tested on: barnyardgrass (Echinochloa crus-galli); assay: Test A postemergence; details: 1000 g ai/ha, 0 to 100 scale, 0 no effect, 100 complete control; for pest or weed control at 1000 g/ha: Echinochloa crus-galli, post-emergence, 240 h, read-out: Plant response rating, Barnyardgrass
Outline: as §2

[9] = tested on: blackgrass (Alopecurus myosuroides); assay: Test A postemergence; details: 1000 g ai/ha, 0 to 100 scale; for pest or weed control at 1000 g/ha: Alopecurus myosuroides, post-emergence, 240 h, read-out: Plant response rating, Blackgrass
Outline: as §2

[10] = tested on: giant foxtail (Setaria faberii); assay: Test A postemergence; details: 1000 g ai/ha, 0 to 100 scale; for pest or weed control at 1000 g/ha: Setaria faberi, post-emergence, 240 h, read-out: Plant response rating, Foxtail, Giant
Outline: as §2

[11] = tested on: galium (catchweed bedstraw, Galium aparine); assay: Test A postemergence; details: 1000 g ai/ha, 0 to 100 scale; for pest or weed control at 1000 g/ha: Galium, post-emergence, 240 h, read-out: Plant response rating, Galium
Outline: as §2

[12] = tested on: ragweed (common ragweed, Ambrosia elatior); assay: Test A postemergence; details: 1000 g ai/ha, 0 to 100 scale; for pest or weed control at 1000 g/ha: Ambrosia artemisiifolia, post-emergence, 240 h, read-out: Plant response rating, Ragweed
Outline: as §2

[13] = tested on: pigweed (Amaranthus retroflexus); assay: Test A preemergence; details: 1000 g ai/ha, 0 to 100 scale; for pest or weed control at 1000 g/ha: Amaranthus retroflexus, pre-emergence, 240 h, read-out: Plant response rating, Pigweed
Outline: as §2

[14] = tested on: Italian ryegrass (Lolium multiflorum); assay: Test A preemergence; details: 1000 g ai/ha, 0 to 100 scale; for pest or weed control at 1000 g/ha: Lolium multiflorum, pre-emergence, 240 h, read-out: Plant response rating, Ryegrass, Italian
Outline: as §2

[15] = tested on: kochia (Kochia scoparia); assay: Test A preemergence; details: 1000 g ai/ha, 0 to 100 scale; for pest or weed control at 1000 g/ha: Bassia scoparia, pre-emergence, 240 h, read-out: Plant response rating, Kochia
Outline: as §2

[16] = tested on: barnyardgrass (Echinochloa crus-galli); assay: Test A preemergence; details: 1000 g ai/ha, 0 to 100 scale; for pest or weed control at 1000 g/ha: Echinochloa crus-galli, pre-emergence, 240 h, read-out: Plant response rating, Barnyardgrass
Outline: as §2

[17] = tested on: giant foxtail (Setaria faberii); assay: Test A preemergence; details: 1000 g ai/ha, 0 to 100 scale; for pest or weed control at 1000 g/ha: Setaria faberi, pre-emergence, 240 h, read-out: Plant response rating, Foxtail, Giant
Outline: as §2

[18] = tested on: ragweed (common ragweed, Ambrosia elatior); assay: Test A preemergence; details: 1000 g ai/ha, 0 to 100 scale; for pest or weed control at 1000 g/ha: Ambrosia artemisiifolia, pre-emergence, 240 h, read-out: Plant response rating, Ragweed
Outline: as §2

[19] = tested on: barnyardgrass (Echinochloa crus-galli); assay: Test B flooded paddy; details: 250 g ai/ha, Flood, 13 to 15 days, scale 0 (no effect) to 100 (complete control); for pest or weed control at 250 g/ha: Echinochloa crus-galli, 336 h, read-out: Plant response rating, Barnyardgrass
Outline: (§3)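 Flooded 3 cm over soil; compound into paddy water; depth kept constant. Greenhouse 13–15 d.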

[20] = tested on: rice (Oryza sativa); assay: Test B flooded paddy; details: 250 g ai/ha, Flood, 13 to 15 days, scale 0 (no effect) to 100 (complete control); for plant injury at 250 g/ha: Oryza sativa, 336 h, read-out: Plant response rating, Rice
Outline: as §3

[21] = tested on: ducksalad (Heteranthera limosa); assay: Test B flooded paddy; details: 250 g ai/ha, Flood, 13 to 15 days, scale 0 (no effect) to 100 (complete control); for pest or weed control at 250 g/ha: Heteranthera limosa, 336 h, read-out: Plant response rating, Ducksalad
Outline: as §3

[22] = tested on: sedge, umbrella (small-flower umbrella sedge, Cyperus difformis); assay: Test B flooded paddy; details: 250 g ai/ha, Flood, 13 to 15 days, scale 0 (no effect) to 100 (complete control); for pest or weed control at 250 g/ha: Cyperus difformis, 336 h, read-out: Plant response rating, Sedge, Umbrella
Outline: as §3

## Fc1cnc(Oc2c(F)cccc2Oc2ncc(Cl)cn2)nc1 [Compound 23]
[1]; 31 g ai/ha, preemergence
  pest or weed control at 31 g/ha: 100%
[1]; 62 g ai/ha, preemergence
  pest or weed control at 62 g/ha: 100%
[1]; 125 g ai/ha, preemergence
  pest or weed control at 125 g/ha: 100%
[2]; 31 g ai/ha, preemergence
  pest or weed control at 31 g/ha: 75%
[2]; 62 g ai/ha, preemergence
  pest or weed control at 62 g/ha: 100%
[2]; 125 g ai/ha, preemergence
  pest or weed control at 125 g/ha: 100%
[2]; 250 g ai/ha, preemergence
  pest or weed control at 250 g/ha: 100%
[3]
  pest or weed control at 1000 g/ha: 100%
[4]
  plant injury at 1000 g/ha: 60%
[5]
  pest or weed control at 1000 g/ha: 90%
[6]
  pest or weed control at 1000 g/ha: 90%
[7]
  Corn plant response rating (crop injury, 0 = no effect, 100 = complete kill) at 1000 g/ha: 50%
[8]
  pest or weed control at 1000 g/ha: 90%
[9]
  pest or weed control at 1000 g/ha: 80%
[10]
  pest or weed control at 1000 g/ha: 90%
[11]
  pest or weed control at 1000 g/ha: 90%
[12]
  pest or weed control at 1000 g/ha: 90%
[13]
  pest or weed control at 1000 g/ha: 100%
[14]
  pest or weed control at 1000 g/ha: 80%
[15]
  pest or weed control at 1000 g/ha: 100%
[16]
  pest or weed control at 1000 g/ha: 100%
[17]
  pest or weed control at 1000 g/ha: 100%
[18]
  pest or weed control at 1000 g/ha: 100%
[19]
  pest or weed control at 250 g/ha: 60%
[20]
  plant injury at 250 g/ha: 60%
[21]
  pest or weed control at 250 g/ha: 90%
[22]
  pest or weed control at 250 g/ha: 80%

## FC(F)(F)c1cnc(Oc2c(Br)cccc2Oc2ncc(Cl)cn2)nc1 [Compound 24]
[1]; 31 g ai/ha, Preemergence
  Plant response rating, Lambsquarters: 75
[1]; 62 g ai/ha, Preemergence
  Plant response rating, Lambsquarters: 90
[1]; 125 g ai/ha, Preemergence
  Plant response rating, Lambsquarters: 98
[1]; 250 g ai/ha, preemergence
  Plant response rating, Lambsquarters: 98
[2]; 31 g ai/ha, Preemergence
  Plant response rating, Barnyardgrass: 75
[2]; 62 g ai/ha, Preemergence
  Plant response rating, Barnyardgrass: 100
[2]; 125 g ai/ha, Preemergence
  Plant response rating, Barnyardgrass: 100
[2]; 250 g ai/ha, preemergence
  Plant response rating, Barnyardgrass: 100
[3]
  Plant response rating, Pigweed: 100
[4]
  Plant response rating, Wheat: 50
[5]
  Plant response rating, Ryegrass, Italian: 80
[6]
  Plant response rating, Kochia: 90
[7]
  Plant response rating, Corn: 50
[8]
  Plant response rating, Barnyardgrass: 90
[9]
  Plant response rating, Blackgrass: 70
[10]
  Plant response rating, Foxtail, Giant: 90
[11]
  Plant response rating, Galium: 90
[12]
  Plant response rating, Ragweed: 60
[13]
  Plant response rating, Pigweed: 100
[14]
  Plant response rating, Ryegrass, Italian: 80
[15]
  Plant response rating, Kochia: 90
[16]
  Plant response rating, Barnyardgrass: 100
[17]
  Plant response rating, Foxtail, Giant: 100
[18]
  Plant response rating, Ragweed: 70
[19]
  Plant response rating, Barnyardgrass: 50
[20]
  Plant response rating, Rice: 90
[21]
  Plant response rating, Ducksalad: 100
[22]
  Plant response rating, Sedge, Umbrella: 100

## Fc1cccc(Oc2ncc(Cl)cn2)c1Oc1ncc(Br)cn1 [Compound 27, 5-bromo-2-[2-fluoro-6-[(5-chloro-2-pyrimidinyl)oxy]phenoxy]pyrimidine]
[1]; 31 g ai/ha, preemergence
  pest or weed control at 31 g/ha: 80%
[1]; 62 g ai/ha, preemergence
  pest or weed control at 62 g/ha: 85%
[1]; 125 g ai/ha, preemergence
  pest or weed control at 125 g/ha: 100%
[2]; 31 g ai/ha, preemergence
  pest or weed control at 31 g/ha: 55%
[2]; 62 g ai/ha, preemergence
  pest or weed control at 62 g/ha: 100%
[2]; 125 g ai/ha, preemergence
  pest or weed control at 125 g/ha: 100%
[2]; 250 g ai/ha, preemergence
  pest or weed control at 250 g/ha: 100%
[3]
  pest or weed control at 1000 g/ha: 100%
[4]
  plant injury at 1000 g/ha: 50%
[5]
  pest or weed control at 1000 g/ha: 90%
[6]
  pest or weed control at 1000 g/ha: 90%
[7]
  Corn plant response rating (crop injury, 0 = no effect, 100 = complete kill) at 1000 g/ha: 40%
[8]
  pest or weed control at 1000 g/ha: 90%
[9]
  pest or weed control at 1000 g/ha: 80%
[10]
  pest or weed control at 1000 g/ha: 90%
[11]
  pest or weed control at 1000 g/ha: 90%
[12]
  pest or weed control at 1000 g/ha: 80%
[13]
  pest or weed control at 1000 g/ha: 100%
[14]
  pest or weed control at 1000 g/ha: 70%
[15]
  pest or weed control at 1000 g/ha: 100%
[16]
  pest or weed control at 1000 g/ha: 100%
[17]
  pest or weed control at 1000 g/ha: 100%
[18]
  pest or weed control at 1000 g/ha: 90%
[19]
  pest or weed control at 250 g/ha: 50%
[20]
  plant injury at 250 g/ha: 60%
[21]
  pest or weed control at 250 g/ha: 80%
[22]
  pest or weed control at 250 g/ha: 85%
